Experiments:
CYP2C19 = target: T1, CYP2C19 (Homo sapiens, UniProt P33261); assay: Inhibition of CYP coenzyme activity in human liver microsomes; assay type: in vitro ADME; details: compound 10 PM (so in the source); human liver microsomes 0.25 mg/mL; substrate S-mephenytoin; 15 minutes
T1 construct: human liver microsomes (0.25 mg/mL); from tissue; host or cells: human liver microsomes
Method in brief: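 Human liver microsomes (0.25 mg/mL) in 0.1 M phosphate pH 7.4 with a substrate cocktail (phenacetin 50 μM, diclofenac 10 μM, S-mephenytoin 100 μM, dextromethorphan 5 μM, midazolam 2.5 μM) and compound at 0 or 10 μM. Preincubated 5 min at 37 °C, then 15 min with NADPH system. Metabolites quantified by LC-MS/MS (MRM).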

[1] = Pharmacokinetics in SD rat (plasma PK parameters); assay type: in vivo; details: for AUCall / clearance / half-life / Cmax / Tmax: SD rat plasma; for F: SD rat, PO 10 mg/kg versus IV
Protocol: Specifically, an SD rat of 7 to 8 weeks of age (Core Tech, Hana Trading Co., Ltd.) having a body weight of about 250 g to 300 g was purchased, and was managed in a simple breeding room for small animals set to a temperature of 22° C.±2° C., a relative humidity of 50%±5%, a lighting time of 12 hours (light up at 8:00 A.M., turn off at 8:00 P.M.), and an illuminance of 150 lux to 300 lux. During the entire test period, feed was freely provided, RO water was freely provided, and fasting was performed for 16 hours before the oral administration of a drug. After preparing a drug under the conditions shown in Table 5 below, the drug was intravenously injected (IV) or orally administered (PO). 500 µL of transfused blood was collected in a tube containing sodium heparin and centrifuged at 2° C. to 8° C. at 8,000 rpm for 6 minutes to obtain plasma from the blood. The obtained plasma was added to 180 μL of acetonitrile containing internal standard materials, vortexed, and then centrifuged at 15,000 rpm at 4° C. for 5 minutes to obtain a supernatant. The obtained supernatant was analyzed by LC-MS/MS.
Specific PK parameters were acquired using the Phoenix WinNonlin version 6.4 program (Phersight, USA) and wore calculated with a non-compartmental analysis model.

[2] = Liver microsomal stability (mouse); assay type: in vitro ADME; details: amount of substrate remaining; 1 μM, 0.25 mg/mL microsomes, 37° C., 30 minutes
Method in brief: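 Compound at 1 μM with microsomes (0.25 mg/mL each species) in 0.1 M phosphate buffer pH 7.4, preincubated 5 min at 37 °C, then 30 min at 37 °C after NADPH-generating system addition. Quenched with acetonitrile plus internal standard; remaining substrate measured by LC-MS/MS.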

T1 sequence (P33261 whole entry): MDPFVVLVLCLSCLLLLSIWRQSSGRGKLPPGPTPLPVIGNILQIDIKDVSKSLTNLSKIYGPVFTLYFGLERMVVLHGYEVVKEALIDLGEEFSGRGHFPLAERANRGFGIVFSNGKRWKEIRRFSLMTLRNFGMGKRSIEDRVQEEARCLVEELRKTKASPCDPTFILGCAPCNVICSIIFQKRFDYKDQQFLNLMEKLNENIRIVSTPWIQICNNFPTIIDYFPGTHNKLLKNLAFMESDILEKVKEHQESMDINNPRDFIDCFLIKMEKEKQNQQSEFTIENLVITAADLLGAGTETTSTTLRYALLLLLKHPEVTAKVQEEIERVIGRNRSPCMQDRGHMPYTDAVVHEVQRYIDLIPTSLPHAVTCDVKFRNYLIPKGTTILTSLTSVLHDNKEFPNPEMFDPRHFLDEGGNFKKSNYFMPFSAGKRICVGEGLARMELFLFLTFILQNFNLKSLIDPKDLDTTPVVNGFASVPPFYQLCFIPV

Row | Structure (SMILES) | inhibition effects of CYP coenzyme activity, CYP2C19 (CYP2C19) | AUCall ([1]; IV 1 mg/kg) | clearance ([1]; IV 1 mg/kg) [mL/min/kg] | half-life ([1]; IV 1 mg/kg) [h] | AUCall ([1]; PO 10 mg/kg) | Cmax ([1]; PO 10 mg/kg) [ng/mL] | Tmax ([1]; PO 10 mg/kg) [h] | half-life ([1]; PO 10 mg/kg) [h] | F [1] [%] | liver microsomal stability, Mouse (%) [2] [%] | Cmax ([1]; IV 1 mg/kg) [ng/mL] | Tmax ([1]; IV 1 mg/kg) [h] | AUCall ([1]; IV 2 mg/kg) | Cmax ([1]; IV 2 mg/kg) [ng/mL] | Tmax ([1]; IV 2 mg/kg) [h] | clearance ([1]; IV 2 mg/kg) [mL/min/kg] | half-life ([1]; IV 2 mg/kg) [h]
1 | N#CC(C#N)=NNc1ccc(-c2ncccn2)cc1 [Compound 1, (4-(pyrimidin-2-yl)phenyl)carbonohydrazonoyl dicyanide] | 90.7 | 7260.0 ± 580.1 hr, ng/mL | 11.5 ± 0.9 | 1.1 ± 1 | 4652.8 ± 1158.9 hr, ng/mL | 1840 ± 609 | 1.7 ± 2.9 | 1.6 ± 1.6 | 32 | 86.1 |  |  |  |  |  |  | 
2 | N#CC(C#N)=NNc1ccc(-c2cnc3ccnn3c2)cc1 [Compound 50, (4-(pyrazolo[1,5-a]pyrimidin-6-yl)phenyl)carbonohydrazonoyl dicyanide] | 83.8 | 8149.7 ± 1421.0 hr, ng/mL | 2 ± 0.3 | 1.9 ± 0.3 | 6726.6 ± 2700.2 hr, ng/mL | 1330 ± 788 | 5 ± 2 |  | 8.3 | 89.5 |  |  |  |  |  |  | 
3 | N#CC(C#N)=NNc1ccc(-c2ncc(F)cn2)cc1 [Compound 2, (4-(5-fluoropyrimidin-2-yl)phenyl)carbonohydrazonoyl dicyanide] | 88.8 | 7335.6 ± 1794.1 hr, ng/mL | 2.4 ± 0.7 | 1.2 ± 0.3 | 19890.5 ± 6049.3 hr, ng/mL |  |  |  | 27.1 | 6.4 | 4280 ± 1390 | 5.5 ± 1 |  |  |  |  | 
4 | Cc1ncc(-c2ccc(NN=C(C#N)C#N)cc2)s1 [Compound 11, (4-(2-methylthiazol-5-yl)phenyl)carbonohydrazonoyl dicyanide] | 83.4 |  |  |  | 19169.2 hr, ng/mL | 6900 | 0.25 | 2.96 | 32.5 | 65.6 |  |  | 11800.37 hr, ng/mL | 10700 | 0.08 | 2.84 | 1.05
5 | Cc1cnc(C(=O)Nc2nc3ccc(NN=C(C#N)C#N)cc3s2)cn1 [Compound 93, (2-(5-methylpyrazine-2-carboxamido)benzo[d]thiazol-6-yl)carbonohydrazonoyl dicyanide] | 91.6 | 6059.4 ± 548.0 hr, ng/mL | 2.7 ± 0.3 | 1.7 ± 0.1 | 13884.8 ± 3420.9 hr, ng/mL | 2570 ± 423 | 5 ± 1.2 |  | 22.9 | 37.3 |  |  |  |  |  |  | 

Reference: patent publication US12590071B2, “Hydrazone derivative in which terminal amine group is substituted with aryl group or heteroaryl group, and use thereof” (KOREA INSTITUTE OF SCIENCE AND TECHNOLOGY, priority 2018, dated 2026)
